Results published in patent US20250000834A1, “COMPOSITIONS AND METHODS FOR TARGETING GPCR FOR THE PREVENTION AND TREATMENT OF PAIN” (Duke University, priority 2021, published 2025).

How the values were obtained:
[1] = tested on: STZ-induced mechanical allodynia in mice; assay: Streptozotocin (STZ)-induced mechanical allodynia, von Frey paw withdrawal threshold; type: in vivo, mouse; conditions: intrathecal 100 ng
Procedure: Pain models and drug injection: Animal model of chemotherapy-induced peripheral neuropathy (CIPN) was induced by paclitaxel (Sigma-Aldrich (St. Louis, MO), T7191, diluted with sterile saline). A single injection of paclitaxel ([…]) was given by intraperitoneal injection. A single injection of paclitaxel may induce mechanical allodynia for 4-6 weeks (X. Luo et al., Macrophage Toll-like Receptor 9 Contributes to Chemotherapy-Induced Neuropathic Pain in Male Mice. J Neurosci 39, 6848-6864 (2019)). Animal model of […] neuropathy was induced by streptozotocin (STZ, Sigma-Aldrich (St. Louis, MO), S0130, diluted with sterile saline). A single injection of STZ (75 mg/kg) was given as previously described (N. C. Brigham et al., Controlled release of etoricoxib from poly(ester urea) films for post-operative pain management. J Control Release 329, 316-327 (2021)). For intrathecal (i.t.) injection of MaR1, a spinal cord puncture was made by a Hamilton micro-syringe (Hamilton, Reno, NV) with a 30-gauge needle between the L5 and L6 levels to deliver reagents (5 μl) to the cerebral spinal fluid (J. L. Hylden, G. L. Wilcox, Intrathecal morphine in mice: a new technique. Eur. J Pharmacol. 67, 313-316 (1980)).
Nociceptive behavior tests: Gpr37l1^+/+, Gpr37l1^+/−, or Gpr37l1^−/− mice were habituated to the testing environment for at least two days before the baseline testing. All the animal behaviors were tested blindly. Thermal and mechanical sensitivity was tested before and after the injection of paclitaxel (PTX, 6 mg/kg, IP) and streptozotocin (STZ, 75 mg/kg, IP). MaR1 was intrathecally injected 3 days after the STZ and PTX injection. […] The 50% paw withdrawal threshold was measured by Dixon's up-down method (W. J. Dixon, Efficient analysis of experimental observations. Annu Rev Pharmacol Toxicol 20, 441-462 (1980)). Thermal sensitivity was measured using a Hargreaves radiant heat apparatus (IITC Life Science, Woodland Hills, CA) (K. Hargreaves, et al., A new and sensitive method for measuring thermal nociception in cutaneous hyperalgesia. Pain 32, 77-88 (1988)). […]

[2] = target: T1, hGPR37L1 (Homo sapiens, UniProt O60883); assay: Lipid-coated bead pull-down assay with hGPR37L1-expressing cells; type: binding; parameters: expressed in transfected cells; host or cells: HEK293 Flp-In cells; conditions: Western blot
T1 sequence (O60883 26-481): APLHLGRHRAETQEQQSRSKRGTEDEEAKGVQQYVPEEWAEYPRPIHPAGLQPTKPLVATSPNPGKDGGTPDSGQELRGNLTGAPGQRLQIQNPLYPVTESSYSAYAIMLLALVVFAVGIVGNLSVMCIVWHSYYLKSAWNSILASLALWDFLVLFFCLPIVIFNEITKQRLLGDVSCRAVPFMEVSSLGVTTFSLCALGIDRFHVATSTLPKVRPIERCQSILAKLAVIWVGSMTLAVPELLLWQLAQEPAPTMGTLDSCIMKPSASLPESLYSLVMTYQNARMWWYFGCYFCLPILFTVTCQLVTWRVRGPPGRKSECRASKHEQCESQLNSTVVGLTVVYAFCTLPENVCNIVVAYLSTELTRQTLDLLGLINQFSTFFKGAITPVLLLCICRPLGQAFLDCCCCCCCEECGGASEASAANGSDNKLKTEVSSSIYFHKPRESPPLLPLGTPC
Procedure: Lipid pull-down assay: Isolated membrane proteins were pre-adsorbed to uncoated control agarose beads (Vector Laboratories, Burlingame, CA); the unbound fraction was collected and incubated 24 hrs at 4° C. with lipid-coated agarose beads (S. Bang et al., GPR37 regulates macrophage phagocytosis and resolution of inflammatory pain. J Clin Invest 128, 3568-3582 (2018)). After extensive washing, bound proteins were eluted from the lipid-coated beads, suspended in Laemmli buffer containing 2% SDS (w/v) and 0.3-M β-mercaptoethanol (Sigma-Aldrich, St. Louis, MO), and heated 5 min at 95° C. to dissolve proteins before separation on 4-20% polyacrylamide/SDS gels as outlined above. The lysate proteins were detected by western blot.
Western blot: GPR37L1 proteins were isolated from transfected cells, lipid pull-down beads, and mouse DRG. The cells were placed on ice, washed with ice-cold phosphate-buffered saline (PBS), and harvested with ice-cold RIPA buffer (Sigma-Aldrich, St. Louis, MO) with Protease Inhibitor Cocktail Tablet (pH 7.4) (Roche Diagnostics, Indianapolis, IN). The cell lysates were centrifugated for removing insoluble debris and were calculated by BCA assay for detection of protein level, and the supernatant was mixed with 4× Laemmli buffer (Bio-Rad, Hercules, CA) and boiling. Protein samples were […] on 4-15% gradient SDS-PAGE gel (Bio-Rad, Hercules, CA) and blotted on PVDF membrane (Bio-Rad, Hercules, CA). Ponceau S staining was used for the detection of total proteins. The primary antibody was incubated with PBS+1% BSA at 4° C. overnight. We used the following primary antibodies: anti-GPR37L1 antibody (Bioss (Woburn, MA), Rabbit, 1:1000, #bs-15390R); anti-GAPDH antibody (Proteintech (Rosemont, IL), mouse, 1:2000, #60004); and anti-flag antibody (Cell Signaling Technologies (Danvers, MA), Rabbit, 1:1000, #14793). Blots were further incubated with an […] secondary anti-rabbit antibody (Jackson ImmunoResearch Laboratories (West Grove, PA), donkey, 1:5000), developed in ECL solution (Pierce Biotechnology, Appleton, WI)), and visualized in ChemiDoc XRS (Bio-Rad, Hercules, CA). Protein signal intensity was quantified by Image J software (NIH).
Next, a lipid-coated bead pull-down assay with hGPR37L1-expressing cells was used to confirm whether MaR1 would interact with GPR37L1 protein selectively. […] The right molecule size of GPR37L1 (˜50 kDa) was also validated by the anti-FLAG antibody (data not shown; see U.S. Prov. No. 63/270,198, FIG. 3E).

- GPR37L1 binding in lipid-coated bead pull-down extracts [2]: Strong GPR37L1 binding
SMILES: CC/C=C\C/C=C\C[C@H](O)\C=C/C=C/C=C/[C@H](O)C/C=C\CCC(=O)O [MaR1, Maresin 1]
- effect on STZ-induced mechanical allodynia ([1]; Gpr37l1+/+ WT mice, 3 days after STZ): reversed STZ-induced mechanical allodynia in all the mice
- effect on STZ-induced mechanical allodynia ([1]; Gpr37l1+/− mice): significantly reversed the mechanical allodynia in the majority
- effect on STZ-induced mechanical allodynia ([1]; Gpr37l1−/− mice): no significant effects
